Experimental findings from US20250179083A1, “TRICYCLIC TRIAZOLO COMPOUNDS AS DGK INHIBITORS” (Incyte Corporation, priority 2023, published 2025) are described below.

pIC50: −log10 of the molar value. Where only a bound is given, the exact number is not on record here.

One experiment has as its target T1, DGKα (Homo sapiens, UniProt P23743).
T1 construct: His; purchased Signal Chem D21-10BH
The experiment is described as follows: In vitro DGKα inhibition assay (ADP-Glo). Conditions: His-tagged human recombinant DGKα 0.1 nM, 50 μM ATP, 20 μM DLG, 90 minute incubation. Type of experiment: biochemical. Summed up: (§1)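 His-tagged human DGKα (0.1 nM, 50 μM ATP) or DGKζ (0.4 nM, 30 μM ATP), each with 20 μM DLG lipid substrate, in Tris pH 7.5 buffer with Mg2+, Ca2+, CHAPS.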
(In general: In ADP-Glo the light output rises with the ADP produced.)

A further experiment concerns the target T2, DGKζ (Homo sapiens, UniProt Q13574).
T2 construct: His; purchased Signal Chem D30-10H
The experiment is described as follows: In vitro DGKζ inhibition assay (ADP-Glo). The experiment is classed as biochemical. Conditions: His-tagged human recombinant DGKζ 0.4 nM, 30 μM ATP, 20 μM DLG, 90 minute incubation. The gist of the method: as §1

T1 sequence (P23743 whole entry): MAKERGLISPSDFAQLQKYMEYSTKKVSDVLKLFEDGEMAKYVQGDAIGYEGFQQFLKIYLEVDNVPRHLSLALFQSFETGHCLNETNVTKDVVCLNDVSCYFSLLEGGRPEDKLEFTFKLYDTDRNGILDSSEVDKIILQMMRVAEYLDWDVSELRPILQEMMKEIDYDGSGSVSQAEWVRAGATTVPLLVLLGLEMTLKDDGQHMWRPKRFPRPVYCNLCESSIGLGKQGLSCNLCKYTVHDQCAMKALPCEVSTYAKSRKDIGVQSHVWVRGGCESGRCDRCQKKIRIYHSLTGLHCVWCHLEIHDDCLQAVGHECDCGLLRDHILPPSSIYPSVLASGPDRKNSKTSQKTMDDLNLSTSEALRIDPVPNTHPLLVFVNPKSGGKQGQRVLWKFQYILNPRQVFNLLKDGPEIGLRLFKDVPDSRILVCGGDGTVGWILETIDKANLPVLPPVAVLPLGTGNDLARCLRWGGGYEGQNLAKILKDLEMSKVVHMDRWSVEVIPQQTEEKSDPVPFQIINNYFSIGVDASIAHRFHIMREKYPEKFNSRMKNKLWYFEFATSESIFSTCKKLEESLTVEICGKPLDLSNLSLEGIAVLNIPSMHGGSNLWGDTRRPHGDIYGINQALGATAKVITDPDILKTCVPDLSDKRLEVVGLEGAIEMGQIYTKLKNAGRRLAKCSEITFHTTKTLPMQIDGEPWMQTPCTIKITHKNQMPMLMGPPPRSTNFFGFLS
T2 sequence (Q13574 whole entry): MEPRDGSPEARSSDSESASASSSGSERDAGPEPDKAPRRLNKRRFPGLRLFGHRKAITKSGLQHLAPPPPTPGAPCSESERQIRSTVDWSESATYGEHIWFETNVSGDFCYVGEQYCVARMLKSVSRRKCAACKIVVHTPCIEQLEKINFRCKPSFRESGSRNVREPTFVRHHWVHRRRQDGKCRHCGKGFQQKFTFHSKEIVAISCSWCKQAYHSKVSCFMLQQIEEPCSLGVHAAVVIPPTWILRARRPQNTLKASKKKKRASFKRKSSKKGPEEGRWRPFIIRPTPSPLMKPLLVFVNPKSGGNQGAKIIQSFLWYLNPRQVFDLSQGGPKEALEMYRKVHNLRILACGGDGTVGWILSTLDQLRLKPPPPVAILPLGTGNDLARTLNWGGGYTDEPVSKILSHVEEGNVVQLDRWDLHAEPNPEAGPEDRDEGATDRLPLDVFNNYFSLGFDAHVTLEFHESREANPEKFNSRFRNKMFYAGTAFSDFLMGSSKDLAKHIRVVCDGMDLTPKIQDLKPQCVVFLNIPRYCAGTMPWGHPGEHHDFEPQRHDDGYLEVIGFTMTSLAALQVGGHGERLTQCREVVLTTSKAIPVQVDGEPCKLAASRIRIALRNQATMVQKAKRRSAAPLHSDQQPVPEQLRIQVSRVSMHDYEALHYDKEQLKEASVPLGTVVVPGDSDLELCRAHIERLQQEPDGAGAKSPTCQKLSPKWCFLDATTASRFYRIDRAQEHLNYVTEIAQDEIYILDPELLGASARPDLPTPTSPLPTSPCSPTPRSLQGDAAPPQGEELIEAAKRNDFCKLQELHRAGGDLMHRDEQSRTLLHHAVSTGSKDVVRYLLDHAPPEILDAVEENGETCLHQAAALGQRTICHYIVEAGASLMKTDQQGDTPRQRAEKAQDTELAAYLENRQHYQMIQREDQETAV

Broadly, the pIC50 is −log10 of the IC50, conventionally taken in molar units. For `C[C@@H]1CN(c2nc3nncn3c3c2ncn3C[C@@H]2CCCO2)[C@@H](C)CN1Cc1ccc(Cl)cc1F` [Example 48, 4-((2S,5R)-4-(4-Chloro-2-fluorobenzyl)-2,5-dimethylpiperazin-1-yl)-1-(((S)-tetrahydrofuran-2-yl)methyl)-1H-[1,2,4]triazolo[3,4-b]purine], the pIC50 on DGKα and at DGKζ was > 7.70 in each case.
In the case of `Cc1nc2c(N3C[C@@H](C)N(C(c4ccc(Cl)cc4)C4CC4)C[C@@H]3C)nc3nncn3c2n1C[C@@H]1CCCO1` (stereo partly drawn) [Example 54, 4-((2S,5R)-4-((4-Chlorophenyl)(cyclopropyl)methyl)-2,5-dimethylpiperazin-1-yl)-2-methyl-1-(((S)-tetrahydrofuran-2-yl)methyl)-1H-[1,2,4]triazolo[3,4-b]purine], the pIC50 on DGKα and at DGKζ was > 7.70 each time.
On to `CC[C@@H](c1ccc(Cl)cc1)N1C[C@H](C)N(c2nc3nncn3c3c2ncn3C[C@@H]2CCCO2)C[C@H]1C` [Example 57, 4-((2S,5R)-4-((S)-1-(4-Chlorophenyl)propyl)-2,5-dimethylpiperazin-1-yl)-1-(((S)-tetrahydrofuran-2-yl)methyl)-1H-[1,2,4]triazolo[3,4-b]purine], for which the results for the pIC50 on DGKα and on DGKζ were > 7.70 and 6.70 to 7.70, respectively.
For `CC[C@H](c1ccc(Cl)cc1)N1C[C@H](C)N(c2nc3nncn3c3c2ncn3C[C@@H]2CCCO2)C[C@H]1C` [Example 58, 4-((2S,5R)-4-((R)-1-(4-chlorophenyl)propyl)-2,5-dimethylpiperazin-1-yl)-1-(((S)-tetrahydrofuran-2-yl)methyl)-1H-[1,2,4]triazolo[3,4-b]purine], in that order: > 7.70 and > 7.70.
For `CC[C@@H](c1ccc(C(F)(F)F)cc1)N1C[C@H](C)N(c2nc3nncn3c3c2ncn3C[C@@H]2CCCO2)C[C@H]1C` [Example 59, 4-((2S,5R)-2,5-Dimethyl-4-((S)-1-(4-(trifluoromethyl)phenyl)propyl)piperazin-1-yl)-1-(((S)-tetrahydrofuran-2-yl)methyl)-1H-[1,2,4]triazolo[3,4-b]purine], in that order: > 7.70 and > 7.70.
For `CC[C@H](c1ccc(C(F)(F)F)cc1)N1C[C@H](C)N(c2nc3nncn3c3c2ncn3C[C@@H]2CCCO2)C[C@H]1C` [Example 60, 4-((2S,5R)-2,5-dimethyl-4-((R)-1-(4-(trifluoromethyl)phenyl)propyl)piperazin-1-yl)-1-(((S)-tetrahydrofuran-2-yl)methyl)-1H-[1,2,4]triazolo[3,4-b]purine], in that order: > 7.70 and > 7.70.
Take `Cc1nc2c(N3C[C@@H](C)N([C@H](c4ccc5cc(C(F)(F)F)ccc5n4)C(C)C)C[C@@H]3C)nc3nncn3c2n1C[C@@H]1CCCO1` [Example 63, 4-((2S,5R)-2,5-Dimethyl-4-((S)-2-methyl-1-(6-(trifluoromethyl)quinolin-2-yl)propyl)piperazin-1-yl)-2-methyl-1-(((S)-tetrahydrofuran-2-yl)methyl)-1H-[1,2,4]triazolo[3,4-b]purine]: the pIC50 on DGKα and on DGKζ was > 7.70 in each case.
Regarding `Cc1nc2c(N3C[C@@H](C)N([C@@H](c4ccc5cc(C(F)(F)F)ccc5n4)C(C)C)C[C@@H]3C)nc3nncn3c2n1C[C@@H]1CCCO1` [Example 64, 4-((2S,5R)-2,5-dimethyl-4-((R)-2-methyl-1-(6-(trifluoromethyl)quinolin-2-yl)propyl)piperazin-1-yl)-2-methyl-1-(((S)-tetrahydrofuran-2-yl)methyl)-1H-[1,2,4]triazolo[3,4-b]purine], the pIC50 on DGKα and at DGKζ was > 7.70 each time.
For `Cc1nc2c(N3C[C@@H](C)N([C@H](c4ccc(Cl)cc4)C(C)C)C[C@@H]3C)cc3nncn3c2n1C[C@@H]1CCCO1` [Example 65, 4-((2S,5R)-4-((S)-1-(4-Chlorophenyl)-2-methylpropyl)-2,5-dimethylpiperazin-1-yl)-2-methyl-1-(((S)-tetrahydrofuran-2-yl)methyl)-1H-imidazo[4,5-e][1,2,4]triazolo[4,3-a]pyridine], the pIC50 on DGKα and at DGKζ was > 7.70 each time.
As for `Cc1nc2c(N3C[C@@H](C)N([C@@H](c4ccc(Cl)cc4)C(C)C)C[C@@H]3C)cc3nncn3c2n1C[C@@H]1CCCO1` [Example 66, 4-((2S,5R)-4-((R)-1-(4-chlorophenyl)-2-methylpropyl)-2,5-dimethylpiperazin-1-yl)-2-methyl-1-(((S)-tetrahydrofuran-2-yl)methyl)-1H-imidazo[4,5-e][1,2,4]triazolo[4,3-a]pyridine], the pIC50 on DGKα and at DGKζ was > 7.70 throughout.
On to `Cc1nc2c(N3C[C@@H](C)N(C(C)c4ccc(C(F)(F)F)cc4)C[C@@H]3C)nc3nncn3c2n1C[C@@H]1CCCO1` (stereo partly drawn) [Example 67, 4-((2S,5R)-2,5-Dimethyl-4-(1-(4-(trifluoromethyl)phenyl)ethyl)piperazin-1-yl)-2-methyl-1-(((S)-tetrahydrofuran-2-yl)methyl)-1H-[1,2,4]triazolo[3,4-b]purine], for which the pIC50 on DGKα and at DGKζ was > 7.70 in each case.
For the compound `CC(c1ccc(C(F)(F)F)cc1)N1C[C@H](C)N(c2nc3nncn3c3c2ncn3C[C@@H]2CCCO2)C[C@H]1C` (stereo partly drawn) [Example 68, 4-((2S,5R)-2,5-Dimethyl-4-(1-(4-(trifluoromethyl)phenyl)ethyl)piperazin-1-yl)-1-(((S)-tetrahydrofuran-2-yl)methyl)-1H-[1,2,4]triazolo[3,4-b]purine], the pIC50 on DGKα and at DGKζ was > 7.70 each time.
As to `Cc1nc2c(N3C[C@@H](C)N(Cc4ccc(C(F)(F)F)cc4F)C[C@@H]3C)cc3nncn3c2n1C[C@@H]1CCCO1` [Example 69, 4-((2S,5R)-4-(2-Fluoro-4-(trifluoromethyl)benzyl)-2,5-dimethylpiperazin-1-yl)-2-methyl-1-(((S)-tetrahydrofuran-2-yl)methyl)-1H-imidazo[4,5-e][1,2,4]triazolo[4,3-a]pyridine], the negative-log IC50 (pIC50) at DGKα and on DGKζ was > 7.70 each time.
`Cc1nc2c(N3C[C@@H](C)N(Cc4ccc(Cl)cc4)C[C@@H]3C)nc3nncn3c2n1C[C@@H]1CCCO1` [Example 70, 4-((2S,5R)-4-(4-Chlorobenzyl)-2,5-dimethylpiperazin-1-yl)-2-methyl-1-(((S)-tetrahydrofuran-2-yl)methyl)-1H-[1,2,4]triazolo[3,4-b]purine]: the pIC50 at DGKα and at DGKζ was > 7.70 throughout.
For the compound `Cc1nc2c(N3C[C@@H](C)N(Cc4ccc(Cl)cc4F)C[C@@H]3C)nc3nncn3c2n1C[C@@H]1CCCO1` [Example 71, 4-((2S,5R)-4-(4-Chloro-2-fluorobenzyl)-2,5-dimethylpiperazin-1-yl)-2-methyl-1-(((S)-tetrahydrofuran-2-yl)methyl)-1H-[1,2,4]triazolo[3,4-b]purine], the pIC50 on DGKα and on DGKζ was > 7.70 in each case.
`Cc1nc2c(N3C[C@@H](C)N(Cc4ccc(Cl)c(Cl)c4)C[C@@H]3C)nc3nncn3c2n1C[C@@H]1CCCO1` [Example 72, 4-((2S,5R)-4-(3,4-Dichlorobenzyl)-2,5-dimethylpiperazin-1-yl)-2-methyl-1-(((S)-tetrahydrofuran-2-yl)methyl)-1H-[1,2,4]triazolo[3,4-b]purine]: the pIC50 on DGKα and at DGKζ was > 7.70 throughout.
For `Cc1nc2c(N3C[C@@H](C)N(Cc4c(F)cc(Cl)cc4F)C[C@@H]3C)nc3nncn3c2n1C[C@@H]1CCCO1` [Example 73, 4-((2S,5R)-4-(4-Chloro-2,6-difluorobenzyl)-2,5-dimethylpiperazin-1-yl)-2-methyl-1-(((S)-tetrahydrofuran-2-yl)methyl)-1H-[1,2,4]triazolo[3,4-b]purine], the pIC50 on DGKα and at DGKζ was > 7.70 throughout.
As for `Cc1nc2c(N3C[C@@H](C)N(Cc4cc(F)c(Cl)c(C(F)(F)F)c4)C[C@@H]3C)nc3nncn3c2n1C[C@@H]1CCCO1` [Example 74, 4-((2S,5R)-4-(4-Chloro-3-fluoro-5-(trifluoromethyl)benzyl)-2,5-dimethylpiperazin-1-y1)-2-methyl-1-(((S)-tetrahydrofuran-2-yl)methyl)-1H-[1,2,4]triazolo[3,4-b]purine], the pIC50 on DGKα and at DGKζ was > 7.70 in each case.
Take `Cc1nc2c(N3C[C@@H](C)N(Cc4ccc(C(F)(F)F)c(F)c4)C[C@@H]3C)nc3nncn3c2n1C[C@@H]1CCCO1` [Example 75, 4-((2S,5R)-4-(3-Fluoro-4-(trifluoromethyl)benzyl)-2,5-dimethylpiperazin-1-yl)-2-methyl-1-(((S)-tetrahydrofuran-2-yl)methyl)-1H-[1,2,4]triazolo[3,4-b]purine]: the pIC50 at DGKα and on DGKζ was > 7.70 in each case.
For the compound `Cc1nc2c(N3C[C@@H](C)N(Cc4ccc(Cl)c(F)c4)C[C@@H]3C)nc3nncn3c2n1C[C@@H]1CCCO1` [Example 76, 4-((2S,5R)-4-(4-Chloro-3-fluorobenzyl)-2,5-dimethylpiperazin-1-yl)-2-methyl-1-(((S)-tetrahydrofuran-2-yl)methyl)-1H-[1,2,4]triazolo[3,4-b]purine], the pIC50 on DGKα and on DGKζ was > 7.70 each time.
As for `C[C@@H]1CN(c2nc3nncn3c3c2ncn3C[C@@H]2CCCO2)[C@@H](C)CN1Cc1ccc(Cl)c(F)c1` [Example 77, 4-((2S,5R)-4-(4-Chloro-3-fluorobenzyl)-2,5-dimethylpiperazin-1-yl)-1-(((S)-tetrahydrofuran-2-yl)methyl)-1H-[1,2,4]triazolo[3,4-b]purine], the pIC50 at DGKα and on DGKζ was > 7.70 in each case.
As to `CC[C@@H]1CN(c2nc3nncn3c3c2nc(C)n3C[C@@H]2CCCO2)[C@@H](C)CN1C(c1ccc(Cl)cc1)C1CC(F)(F)C1` (stereo partly drawn) [Example 78, 4-((2S,5R)-4-((4-Chlorophenyl)(3,3-difluorocyclobutyl)methyl)-5-ethyl-2-methylpiperazin-1-yl)-2-methyl-1-(((S)-tetrahydrofuran-2-yl)methyl)-1H-[1,2,4]triazolo[3,4-b]purine], the pIC50 on DGKα and at DGKζ was > 7.70 each time.
